According to patent US10363239B2, “Method for inhibiting growth of cancer cells” (Pain Therapeutics, Inc., priority 2013, dated 2019):
Read-outs that look alike come from different tables or passages of the source.

Tests used:
[1] = target: FLNA pentapeptide of SEQ ID NO: 1 (Bn-VAKGL) (Homo sapiens, UniProt P21333); test: FITC-NLX-based FLNA screening assay (inhibition of FITC-naloxone binding to Bn-VAKGL on streptavidin plates); settings: 10 nM FITC-NLX
mu opiate receptor (MOR) = test: MOR agonist activity using [35S]GTPγS binding assay in striatal membranes; type: biochemical; settings: Series C-1; for % DAMGO (0.1 μM) / Concentration of FLNA-Binding Compound as Agonist 0.1 μM: 0.1 μM compound; for % DAMGO (0.1 μM) / % DAMGO (1 μM): relative to DAMGO; for Concentration of FLNA-Binding Compound as Agonist 0.1 μM / Concentration of FLNA-Binding Compound as Agonist 1 μM: [35S]GTPγS binding to Gαo, striatal membranes; for Concentration of FLNA-Binding Compound as Agonist 1 μM + BFNA: 1 μM compound + 1 μM β-FNA; for % DAMGO + BFNA: 1 μM compound + β-FNA, relative to DAMGO + BFNA; for % DAMGO (1 μM) / Concentration of FLNA-Binding Compound as Agonist 1 μM: 1 μM compound
Outline: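 Striatal membranes (200 μg) were preincubated 5 min at 30 °C in HEPES pH 7.5 with 100 mM NaCl, 1 mM MgCl2 and 0.5 nM [35S]GTPγS, then 5 min more with 0.1–10 μM compound. Gαo was immunoprecipitated and bound radioactivity counted by scintillation.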

[2] = FLNA-binding compound 0.01 μM, read-out: Percent Binding Inhibition
[3] = FLNA-binding compound 0.1 μM, read-out: Percent Binding Inhibition
[4] = FLNA-binding compound 1 μM, read-out: Percent Binding Inhibition
[5] = read-out: Percent Binding Inhibition, FLNA-binding compound 0.01 μM
[6] = read-out: Percent Binding Inhibition, FLNA-binding compound 0.1 μM
[7] = read-out: Percent Binding Inhibition, FLNA-binding compound 1 μM

Structure (SMILES) | inhibition at 0.01 µM [1, 2] [%] | inhibition at 0.1 µM [1, 3] [%] | inhibition at 1 µM [1, 4] [%] | % DAMGO (0.1 μM) (mu opiate receptor (MOR)) [%] | Concentration of FLNA-Binding Compound as Agonist 0.1 μM (mu opiate receptor (MOR)) [%] | Concentration of FLNA-Binding Compound as Agonist 1 μM + BFNA (mu opiate receptor (MOR)) [%] | % DAMGO + BFNA (mu opiate receptor (MOR)) [%] | % DAMGO (1 μM) (mu opiate receptor (MOR)) [%] | Concentration of FLNA-Binding Compound as Agonist 1 μM (mu opiate receptor (MOR)) [%] | inhibition at 0.01 µM [1, 5] [%] | inhibition at 0.1 µM [1, 6] [%] | inhibition at 1 µM [1, 7] [%]
O=S(=O)(c1ccc(Br)cc1Br)N1CCC2(CC1)OCCN2S(=O)(=O)c1ccc(Br)cc1Br [Compound C0070] | 42.6 | 50.6 | 53.6 | 96.2 | 165.6 | 114.2 | 331.0 | 95.9 | 210.8 |  |  | 
O=S(=O)(c1ccc(C(F)(F)F)cc1Br)N1CCC2(CC1)OCCN2S(=O)(=O)c1ccc(C(F)(F)F)cc1Br [Compound C0071] |  |  |  | 160.5 | 276.3 | 177.1 | 513.3 | 161.7 | 355.3 | 39.1 | 49.6 | 55.2
O=S(=O)(c1ccc(F)c(F)c1)N1CCC2(CC1)OCCN2S(=O)(=O)c1ccc(F)c(F)c1 [Compound C0072] | 28.4 | 37.4 | 44 | 100.3 | 172.7 | 67.1 | 194.5 | 117.9 | 259.1 |  |  | 
O=S(=O)(c1ccc(Br)c(C(F)(F)F)c1)N1CCC2(CC1)OCCN2S(=O)(=O)c1ccc(Br)c(C(F)(F)F)c1 [Compound C0077] |  |  |  | 109.5 | 192.7 | 136.7 | 621.4 | 104.9 | 265.4 | 45.7 | 47.7 | 51
O=S(=O)(c1ccc(Br)cc1F)N1CCC2(CC1)OCCN2S(=O)(=O)c1ccc(Br)cc1F [Compound C0078] |  |  |  | 82.4 | 138.1 | 170.7 | 359.4 | 106.4 | 236.6 | 46.6 | 48 | 50.5
CC(=O)c1ccc(S(=O)(=O)N2CCC3(CC2)OCC(CCCCN(C)C)N3S(=O)(=O)c2ccc(C(C)=O)cc2)cc1 (stereo not drawn) [Compound C0080] | 46.8 | 53.3 | 54.6 | 112.1 | 187.9 | 167.1 | 351.8 | 92.4 | 205.4 |  |  | 
CC(=O)c1ccc(S(=O)(=O)N2CCC3(CC2)NC(=O)C(Cc2cnc[nH]2)N3S(=O)(=O)c2ccc(C(C)=O)cc2)cc1 (stereo not drawn) [Compound C0084M] |  |  |  | 97.3 | 163.1 | 133.2 | 280.4 | 114.9 | 255.5 | 47.2 | 53.7 | 55.9
